# Results from patent US20130164336A1, “ANTIMICROBIAL AND ANTI-INFLAMMATORY ACTION PHARMACEUTICAL COMPOSITION FOR PARENTERAL ADMINISTRATION AND ITS PRODUCTION PROCESS” (priority 2010, published 2013).
# Columns and labels:
# Assay type in all cases: in vivo
# [1] = system: Staphylococcus aureus (ATCC No 25923 F-49); test: Experimental sepsis model in mice, survival on the 7th day; details: S. aureus 10^10 CFU/mouse
# Description: (§1) To determine therapeutic efficiency of fosfamicin and their pharmaceutical compositions including BHSiO2, we used experimental sepsis models and a statistical processing methos of the received data (χ^2) according to [29, 30].
# (§2) Microorganisms: Staphylococcus aureus (ATCC No 25923 F-49), Escherichia coli (ATCC No 25922 F-50), Pseudomonas aeruginosa (ATCC N227853 F-51).
# (§3) Animals: for the experiments we used hybrid mice (CBA×C57Black/6)CBF1 according to the “Regulations for test animals use” (USSR Ministry of health order supplement No 755 from 12.08. 1977).
# (§4) The mice have been injected 0.8 ml of Pseudomonas aeruginosa daily culture suspension with a dosage 5×10^8 CFU/mouse or Staphylococcus aureus daily culture suspension with a dosage 10^10 CFU/mouse or Escherichia coli daily culture suspension with a dosage 8×10^8 CFU/mouse. The control group has been injected with 0.8 ml of normal saline solution (0.9% sodium chloride solution). In a day after being infected the test mice have been daily (during 3 days) intravenous injected with 100 mg/kg of antibiotics or different pharmaceutical compositions (antibiotic/BHSiO2) watered down with 0.25 ml of normal saline solution. The control group of mice has been injected using the same scheme with normal saline solution 0.25 mg.
# (§5) Antimicrobial therapy efficiency has been estimated basing on the q-ty of the living mice on the 7th day of the experiment.
# (§6) The obtained data stated in Table No 2 reflect the results of 3 independent experiments conducted for each test group.
# [2] = system: Escherichia coli (ATCC No 25922 F-50); test: as above; details: E. coli 8×10^8 CFU/mouse
# Description: as §1, §2, §3, §4, §5, §6
# [3] = system: Pseudomonas aeruginosa (ATCC N227853 F-51); test: as above; details: P. aeruginosa 5×10^8 CFU/mouse
# Description: as §1, §2, §3, §4, §5, §6
# Staphylococcus aureus = test: Anti-inflammatory action: peripheral blood leukocytes of mice surviving to day 7 after sepsis induction; details: mice infected with Staphylococcus aureus surviving to day 7, median, low and high quartiles
# Experimental: as §4, with “The control group has been injected with 0.8 ml of normal saline solution (0.9% sodium chloride solution).” left out, “solution.” for “solution. The control group of mice has been injected using the same scheme with normal saline solution 0.25 mg.”
# (§7) It is known that in case of sepsis the quantity of peripheral blood leucocytes can determine the activity of the inflammatory process.
# (§8) We have studied the leukocytes quantity of the mice that have survived until the day 7 after sepsis induction, according to the method described above.
# Pseudomonas aeruginosa = test: as above; details: mice infected with Pseudomonas aeruginosa surviving to day 7, median, low and high quartiles
# Experimental: as §4, with “The control group has been injected with 0.8 ml of normal saline solution (0.9% sodium chloride solution).” left out, “solution.” for “solution. The control group of mice has been injected using the same scheme with normal saline solution 0.25 mg.”
# as §7, §8
# [4] = 100 mg/kg intravenous daily for 3 days
# [5] = 100 mg/kg intravenous daily for 3 days from a day after infection
compound,measurement,setting,value
"C[C@@H]1O[C@@H]1P(=O)(O)O [Fosfomycin, fosfomycin]","Mice survival on the 7th day, survived/infected animals (absolute values)",[1]; [4],(12/30)
same,Mice survival rate on the 7th day of infection,[1]; [5],40%
same,"Mice survival on the 7th day, survived/infected animals (absolute values)",[2]; [4],(14/30)
same,Mice survival rate on the 7th day of infection,[2]; [5],46.6%
same,"Mice survival on the 7th day, survived/infected animals (absolute values)",[3]; [4],(10/31)
same,Mice survival rate on the 7th day of infection,[3]; [5],32.2%
same,Leukocytes quantity Me(LQ-HQ),Staphylococcus aureus,17.38 (15.5-21.5) × 10^9/l
same,Leukocytes quantity Me(LQ-HQ),Pseudomonas aeruginosa,17.13 (16.0-18.63) × 10^9/l
